From US20090092664A1, “POLYMER-METAL CHELATOR CONJUGATES AND USES THEREOF” (UNIVERSITY OF KENTUCKY RESEARCH FOUNDATION, priority 2007, published 2009)
Values belong to the molecule of their own block, whether it stands above or below them.

Experiments:
HL-60/VCR cells = experiment: MTT cell viability assay, HL-60/VCR leukemia cells; assay type: cell-based, human
Experimental: (§1) FIGS. 1A-B: […] Cell viability was determined with the MTT assay. […] Data are represented as the mean±standard error (SE). […] San Diego, Calif.).

MCF-7 cells [1] = experiment: Intracellular ROS (H2DCFDA), MCF-7 cells; assay type: cell-based, human; conditions: for intracellular ROS generation (in words): D-pen 200 μM, cupric sulfate 10 μM, catalase 500 U/mL with D-pen plus cupric sulfate
Experimental: (§2) FIGS. 4A-B: D-pen in the presence of cupric sulfate generates intracellular ROS in breast cancer and leukemia cells. […] Cells were incubated without (positive control) or with H2O2, H2O2 plus catalase, cupric sulfate, D-pen, D-pen plus cupric sulfate, D-pen plus cupric sulfate plus catalase in media. Unloaded cells were used as negative control. The cell associated fluorescence was measured at 30, 60, 90 min at excitation and emission of 485±20 nm and 530±25 nm, respectively. Data are reported as the DCF fluorescence (fold increase versus control).
(§3) 2′-7′-dichlorodihydrofluorescein diacetate (H2DCFDA) was used as an indicator of intracellular ROS generation. H2DCFDA is a cell permeable probe, it enters the cell and is deacetylated to a non-fluorescent product, 2′-7′-dichlorodihydrofluorescein (H2DCF) by cellular esterases and is oxidized by ROS to a fluorescent product, 2′-7′-dichlorofluorescein (DCF). MCF-7 and HL-60 cells were loaded with H2DCFDA and were seeded in a 96 well plate at a concentration of 3×10^4 cells/well. Briefly, cells were incubated with PBS buffer containing 5 μM H2DCFDA (dissolved in DMSO) for 30 min at 37° C. H2DCFDA was then removed and cells were washed twice with fresh PBS to remove excess H2DCFDA. Cells were then incubated with either drug in media or media alone (positive control). Non-H2DCFDA loaded cells were used as negative control. The fluorescence of control and sample wells was recorded at excitation 485±20 nm, emission 530±25 nm with Biotek FL600 (Biotek Instruments, Winooski, Vt.) at 30, 60, and 90 min. Then data is reported as DCF fluorescence (fold increase vs. control) corresponding to the increase of fluorescence associated with the sample cells compared to that of untreated cells.

HL-60 cells [2] = conditions: cupric sulfate alone 0.1-50 μM, data not shown
HL-60/ADR cells = experiment: MTT cell viability assay, HL-60/ADR leukemia cells; assay type: cell-based, human
Experimental: as §1

HL-60 cells [3] = experiment: In-vitro cytotoxicity of gelatin-D-pen conjugate (MTT); conditions: cupric sulfate up to 100 μM, p>0.05 versus control
Experimental: Cells (2×10^4) were incubated with gelatin alone (1 mg/mL), D-pen alone (100 μM), gelatin (1 mg/mL) plus D-pen (100 μM), and gelatin-D-pen conjugate (1 mg/mL) After every 2 day interval media was replaced with fresh media. MTT assay was performed on day 2, 4, 6, 8 and 10. Data represents mean±SD (n=6). **p<0.01 and ***p<0.001 compared to gelatin plus D-pen.
In-vitro cytotoxicity of gelatin-D-pen conjugate. The HL-60 cells were seeded at a density of 2×10^4 cells/mL in a 96 well plate. […] The above experiments were repeated with the copper pre-treated cells. Cell viability was determined at 24 and 72 h with MTT assay.

HL-60 cells [4] = experiment: Intracellular ROS (H2DCFDA), HL-60 cells; assay type: cell-based, human; conditions: D-pen 200 μM, cupric sulfate 10 μM, catalase 500 U/mL with D-pen plus cupric sulfate
Experimental: as §2, §3

[5] = cited from earlier work
P388 cells = experiment: Cytotoxicity of PGA-D-pen conjugate (MTT), P388; assay type: cell-based; conditions: P388, 48 h
Experimental: (§4) Cell Culture and Cytotoxicity: The P388 cells and HL-60 cells were plated at 1×10^4 and 4×10^4 cells respectively in 200 μl of medium per well in round bottom 96-well microwell plates. The MDA-MB-468 cells were plated at 1×10^4 cells/well in 96-well flat bottom microwell plates and allowed to attach overnight. Equal volumes of PGA-D-pen conjugate, PGA, D-pen, PGA+D-pen or PBS were added and the plates were incubated for 48 h (37° C., 5% CO2). 20 μl of MTT reagent (5 mg/ml in PBS; Sigma) was added to each well and re-incubated for 3-4 h to allow formation of formazan crystals. The round bottom plates were centrifuged at 200 g for 5 min. Subsequently, the supernatant was aspirated and 200 μl of DMSO were added to each well and the plate was incubated at room temperature for 1 h to lyse the cells and solubilize formazan. The optical density of each well at 570 nm was measured on a Synergy™ 2 Multi-Detection Microplate Reader (Biotek, Winooski, Vt.). Percent viability in treated wells was calculated as the percentage of optical density in control wells.

HL-60 cells [6] = assay type: cell-based, human
Experimental: FIG. 19: Cellular uptake of D-pen. D-pen (100 μM) was added to HL-60 (1×10^6) cells in PBS (pH 7.4) in a 24-well plate at 37° C. in 5% CO2 incubator. Cells were separated by centrifugation and the supernatant was analyzed by HPLC assay for D-pen concentration. Data represents mean±SD (n=4).
Quantitative cell uptake of free D-pen. The quantitative cell uptake of free D-pen was investigated in HL-60 cells. Briefly, D-pen (100 μM) was incubated with HL-60 (1×10^6) cells in PBS, pH 7.4 at 37° C. in a 5% CO2 incubator. Cells were incubated for 1-4 h. At pre-determined time the cells were separated by centrifugation and the supernatant was analyzed for the remaining concentration of D-pen as present as either free D-pen or D-pen disulfide using the HPLC assay previously described (Gupte and Mumper, 2007).

HL-60 cells [7] = experiment: Intracellular ROS (carboxy-H2DCFDA), HL-60 cells; assay type: cell-based, human; conditions: naive HL-60, carboxy-H2DCFDA 25 μM, 8 h after treatment
[8] = cited from earlier work; remark: listed apart in the source
HL-60 cells [9] = experiment: Cytotoxicity of PGA-D-pen conjugate (MTT), HL-60; assay type: cell-based, human; conditions: HL-60, 48 h
Experimental: as §4

MDA-MB-468 cells = experiment: Cytotoxicity of PGA-D-pen conjugate (MTT), MDA-MB-468; assay type: cell-based; conditions: MDA-MB-468, 48 h
Experimental: as §4

MCF-7 cells [10] = system: MCF-7 cells
Experimental: (§5) Cell viability was determined with MTT assay. Absorbance was measured at 595 nm and adjusted to the absorbance of untreated cells. Data represent mean±SE; n=12 (two independent experiments performed in n=6). Inhibitory concentration (IC50) was reported as mean±S.E.
(§6) Cell viability was measured using the 3-(4,5-dimethyl-2-yl)-2,5-diphenylteraolium bromide (MTT) assay. The adherent breast cancer cells (MCF-7 and BT474) were seeded at an initial concentration of 3×10^4 cells/well 24 h prior to the commencement of the experiments to allow them to attach, while the suspension leukemia cells, HL-60, HL-60-/VCR and HL-60/ADR were seeded at 3×10^4 cells/well on the same day of the experiment in a 96 well plate. […] The MTT assay was performed at 48 h and absorbance was measured with the microplate reader (Biotek ELx 800, Biotek Instruments, Winooski, Vt.) at a wavelength of 595 nm. Data is reported as cell viability (% control) and corresponds to the percent viable cells compared to untreated cells.
(§7) Data are represented as the mean±standard error (SE). Each experimental group consisted of n=6 and experiments were repeated two times. […] The IC50 was calculated with GraphPad Prism® non-linear regression program.

MCF-7 cells [11] = experiment: cells; conditions: Homo sapiens, MCF7, 48 h
Experimental: as §5, §6, §7

HL-60 cells [12] = experiment: cells; conditions: Homo sapiens, HL-60, 48 h
Experimental: Cell viability was determined with the MTT assay. Absorbance was measured at 595 nm and adjusted to the absorbance of untreated cells. Data represent mean±SE; n=12 (two independent experiments performed in n=6). Inhibitory concentrations (IC50) were reported as the mean±S.E in the figure legend.
as §6, §7

BT474 cells = experiment: MTT cell viability assay, BT474 breast cancer cells; assay type: cell-based, human
Experimental: FIGS. 2A-B: […] Cell viability was determined with MTT assay. […] Inhibitory concentration (IC50) was reported as mean±S.E. […] Data are represented as the mean±standard error (SE). […] San Diego, Calif.).

[13] = cupric sulfate alone 0.1-50 μM, data not shown

Molecule: O=S(=O)([O-])[O-].[Cu+2] [cupric sulfate]
- loss in cell viability (HL-60/VCR cells; [13]): did not result in any appreciable loss in cell viability
- intracellular ROS generation (in words) (MCF-7 cells [1]): failed to produce any ROS
- loss in cell viability (HL-60 cells [2]): did not result in any appreciable loss in cell viability
- loss in cell viability (HL-60/ADR cells; [13]): did not result in any appreciable loss in cell viability
- effect of copper pre-treatment on cell number or viability (HL-60 cells [3]): did not result in statistically significant decrease in cell number or viability
- intracellular ROS generation (in words) (HL-60 cells [4]): failed to produce any ROS

Molecule: CCCCCCOC(=O)[C@H](N)C(C)(C)S [hexyl-D-pen-ester]
- Log P [5]: 1.61

- cell uptake of free D-pen (in words) (HL-60 cells [6]): not to enter leukemia cells
Molecule: CC(C)(S)[C@@H](N)C(=O)O [D-pen, D-penicillamine]
- reduction in cell viability (in words) (P388 cells): did not cause significant reduction in cell viability
- intracellular ROS generation (in words) (MCF-7 cells [1]): failed to produce any ROS
- Log P [5]: −0.39
- intracellular ROS levels (in words) (HL-60 cells [7]): no increase in intracellular ROS
- half-life, biphasic elimination from the blood, first value [8]: 6 to 7 min
- half-life, biphasic elimination from the blood, second value [8]: 52 to 55 min
- reduction in cell viability (in words) (HL-60 cells [9]): did not cause significant reduction in cell viability
- intracellular ROS generation (in words) (HL-60 cells [4]): failed to produce any ROS
- reduction in cell viability (in words) (MDA-MB-468 cells): did not cause significant reduction in cell viability

- fold difference between IC50 of D-pen plus cupric sulfate and IC50 of H2O2 alone (HL-60/VCR cells): ~4 fold
- IC50 (HL-60/VCR cells; Homo sapiens, HL60/VCR, 48 h, MTT, D-pen with cupric sulfate 10 μM): 31.5 ± 1.1 µM
- fold difference between IC50 of D-pen plus cupric sulfate and IC50 of H2O2 alone (MCF-7 cells [10]): approximately 2 fold
- IC50 (MCF-7 cells [11]): 116 ± 1.6 µM
- IC50 (HL-60 cells [12]): 20 ± 1 µM
- fold difference between IC50 of D-pen plus cupric sulfate and IC50 of H2O2 alone (BT474 cells; BT474): ~3 fold
- IC50 (BT474 cells; Homo sapiens, BT-474, BT474, 48 h, MTT): 96.1 ± 1.1 µM
- IC50 (HL-60/ADR cells; Homo sapiens, HL60/ADR, 48 h, MTT, D-pen (1-400 μM) with cupric sulfate 10 μM): 162.5 ± 1.1 µM
Molecule: OO [H2O2, hydrogen peroxide]
- ROS generated compared to D-pen plus cupric sulfate (MCF-7 cells [1]; H2O2 alone 100 μM): 5 fold

Molecule: catalase
- intracellular ROS generation (in words) (MCF-7 cells [1]): completely inhibited ROS generation
- intracellular ROS generation (in words) (HL-60 cells [4]): completely inhibited ROS generation
